Measured values as given in paper PMC7198766, “Structure-Activity Studies on the Hypertrehalosemic Hormone II of the Stick Insect Carausius morosus (Phasmatodea): Carbohydrate-Mobilization and Cardio-Stimulatory Activities” (Frontiers in Physiology, 2020).
Marks after values point to notes of the source that are not given here.

What was measured:
[1] = test system: heart of neck-ligated Carausius morosus; test: Semi-exposed heart bioassay (heart beat rate); assay type: in vivo; settings: for % Activity relative to the effect of Carmo-HrTH-II (myotropic) / Heart rate, Difference: 20 pmol peptide in 150 μl; for % Activity relative to the effect of Carmo-HrTH-II (myotropic): heart rate increase relative to Carmo-HrTH-II = 100, NS = no significant increase; for Heart rate, Post-application: after application of 20 pmol peptide in 150 μl saline, average of first four counts; for Heart rate, Post-application / Heart rate, Pre-application: neck-ligated stick insects; for Heart rate, Pre-application: in saline before application, semi-exposed heart; for Heart rate, Difference: post- minus pre-application
Protocol: The semi-exposed heart bioassay was carried out as described ([Marco et al., 2018]) with adult stick insects between 1 and 2 months old that were ligated at the neck. Briefly, a ventral incision of the abdomen exposed the ventral cavity with the internal organs; a few drops of stick insect saline (pH 6.6; 15 mM NaCl, 18 mM KCl, 7.5 mM CaCl2, 2 mM HEPES, 50 mM MgCl2, and 184 mM glucose according to [Ejaz and Lange, 2008]) were added to the exposed part. The semi-isolated heart preparation was viewed with a dissecting microscope (12-fold magnification), and the number of observed heart beats (contractions of the heart muscle) was counted during a fixed period using a manual tally counter and a timer. Once the heart had stabilized, saline was replaced with the test solution. For this the peptide stock solution of 5 pmol μl^–1 was diluted with stick insect saline to the desired concentration and a final volume of 150 μl was used for each test.
Heart rates under normal saline served as controls. The change in heart rate after the application of the test solution was calculated as an average of the first four counts and was compared to the average heart rates counted in saline before the application of the test solution. This comparison of change in heart rates was done for all the peptides tested.

[2] = test system: ligated 6th instar Indian stick insects (Carausius morosus); test: Carbohydrate-mobilization (hypertrehalosemic) in vivo assay; settings: for Hemolymph carbohydrates, 90 min: 90 min after injection of 20 pmol peptide in 10 μl; for Hemolymph carbohydrates, 90 min / Hemolymph carbohydrates, Difference: neck-ligated 6th instar nymphs; for Hemolymph carbohydrates, Difference: 90 min minus 0 min, 20 pmol peptide in 10 μl injected; for Hemolymph carbohydrates, 0 min: before injection (0 min), 2 h after neck ligation, group later given 20 pmol peptide in 10 μl, 6th instar nymphs; for % Activity relative to the effect of Carmo-HrTH-II (metabolic): 20 pmol peptide injected, carbohydrate increase relative to Carmo-HrTH-II = 100, NS = no significant increase
Protocol: Sixth instar nymphs that were 1–2 days before molting were neck-ligated and used in the hypertrehalosemic in vivo assay as described in detail by [Gäde and Lohr (1982)]. Stock peptide solutions (5 pmol μl^–1) were diluted with distilled water to the desired concentration in 10 μl, which was injected into the stick insect nymphs.
In the first series of experiments, various doses of synthetic Carmo-HrTH-II and corpora cardiaca (CC) extract of C. morosus were used to determine the maximal hypertrehalosemic response of C. morosus. Hemolymph samples were taken from 17 to 18 days old 6th instar nymphs 2 h after they were neck-ligated and then 90 min after either CC extract or synthetic Carmo-HrTH-II was injected. Ligated nymphs injected with distilled water served as controls for handling stress. As depicted in Figures 1A,B, various doses of both Carmo-HrTH-II and CC extract increased the level of carbohydrates in the hemolymph in a dose-dependent manner. A dose of 0.04 pmol of synthetic Carmo-HrTH-II and the equivalent of 0.005 pairs of corpora cardiaca (pCC) were sufficient to give significant increases in hemolymph carbohydrates (p < 0.05). […] Doses of 0.1–0.5 pCC gave an average increase of 5.6 ± 0.6 mg carbohydrates ml^–1 hemolymph (Figure 1B); again, statistical analyses reveal no significant difference between the effect of these doses (p > 0.05).
Based on these pilot experiments, we selected a dose of 20 pmol for testing the analogs of Carmo-HrTH-II since such a dose of our lead compound, Carmo-HrTH-II had achieved maximal hypertrehalosemic activity.

Substance | % Activity relative to the effect of Carmo-HrTH-II (myotropic) [1] | Heart rate, Post-application [1] [beats min^−1] | Heart rate, Pre-application [1] [beats min^−1] | Heart rate, Difference [1] [beats min^−1] | Hemolymph carbohydrates, 90 min [2] [mg/mL] | Hemolymph carbohydrates, Difference [2] [mg/mL] | Hemolymph carbohydrates, 0 min [2] [mg/mL] | % Activity relative to the effect of Carmo-HrTH-II (metabolic) [2] | % Activity relative to the effect of Carmo-HrTH-II (metabolic) ([2]; listed as Ala^10 analog of Carmo-HrTH-II)
pGlu-Leu-Thr-Phe-Thr-Pro-Ser-Trp amide [Aedae-AKH, naturally-occurring AKH octapeptide bioanalog, reference compound] | 8% | 43 ± 6 | 42 ± 6 | 1 ± 1 | 8.8 ± 1.2 | 0.7 ± 1.1 | 8.1 ± 1.4 | – | –
pGlu-Leu-Thr-Phe-Thr-Pro-Asn-Trp-Gly-Ser amide [Phyle-CC, naturally-occurring AKH decapeptide bioanalog, reference compound] | 67^b % | 46 ± 6 | 38 ± 7 | 8 ± 2 | 14.1 ± 1.7 | 5.9 ± 1.7 | 8.2 ± 1.9 | 109^b % | –
pGlu-Val-Asn-Phe-Thr-Pro-Asn-Trp-Gly-Thr amide [Rommi-CC, naturally-occurring AKH decapeptide bioanalog, reference compound] | 150^b % | 57 ± 4 | 39 ± 3 | 18 ± 6 | 10.6 ± 1.6 | 2.6 ± 1.5 | 8.0 ± 1.4 | 48% | –
[N-Ac]Ala-Leu-Thr-Phe-Thr-Pro-Asn-Trp-Gly-Thr amide [Carmo-HrTH-II: [N-Ac]Ala^1] | – | 39 ± 6 | 39 ± 6 | 0 ± 0 | 10.6 ± 2.0 | 1.5 ± 1.1 | 9.0 ± 1.3 | 28% | –
pGlu-Leu-Thr-Phe-Thr-Pro-Asn-Ala-Gly-Thr amide [Ala^8-Carmo-HrTH-II] | – | 42 ± 4 | 42 ± 5 | 0 ± 2 | 8.3 ± 1.9 | -0.1 ± 1.3 | 8.5 ± 2.1 | – | –
pGlu-Leu-Thr-Phe-Thr-Pro-Asn-Trp-Gly-Ala amide [Ala^10-Carmo-HrTH-II] | – | 41 ± 5 | 41 ± 5 | 0 ± 1 | 12.4 ± 1.6 | 2.5 ± 1.0 | 9.9 ± 2.3 | – | about 50%
pGlu-Leu-Thr-Phe-Thr-Pro-Ala-Trp-Gly-Thr amide [Ala^7-Carmo-HrTH-II] | – | 39 ± 4 | 39 ± 4 | 0 ± 1 | 12.0 ± 2.2 | 0.7 ± 0.6 | 11.3 ± 2.0 | 13% | –
Leu-Thr-Phe-Thr-Pro-Asn-Trp-Gly-Thr amide | 58% | 46 ± 5 | 39 ± 6 | 7 ± 2 | 9.5 ± 1.5 | 0.7 ± 1.3 | 8.8 ± 1.7 | – | –
